Where “and” joins values, the source holds several entries; their conditions need not be identical. Equal entries are not always repeated.
Test system: patients with treatment-resistant major depressive disorder (TRD)
Experiment: Phase 1/2 clinical trial of inhaled 5-MeO-DMT in treatment-resistant depression
Settings: for MADRS Concentration Difficulties % improvement / MADRS Concentration Difficulties improvement / MADRS Inability to Feel % improvement / MADRS Inability to Feel improvement / MADRS Inner Tension % improvement / MADRS Inner Tension improvement / MADRS Lassitude % improvement / MADRS Lassitude improvement / MADRS Pessimistic Thoughts % improvement / MADRS Pessimistic Thoughts improvement / MADRS Suicidal Thoughts % improvement / MADRS Suicidal Thoughts improvement / MADRS Suicidal Thoughts aggregated score / MADRS Inner Tension aggregated score / MADRS Lassitude aggregated score / MADRS Pessimistic Thoughts aggregated score / MADRS Concentration Difficulties aggregated score / MADRS Inability to Feel aggregated score / BPRS Anxiety % improvement / BPRS Anxiety improvement / BPRS Blunted Affect % improvement / BPRS Blunted Affect improvement / BPRS Emotional Withdrawal % improvement / BPRS Emotional Withdrawal improvement / BPRS Guilt Feelings % improvement / BPRS Guilt Feelings improvement / BPRS Tension % improvement / BPRS Tension improvement / BPRS Emotional Withdrawal aggregated score / BPRS Blunted Affect aggregated score / BPRS Tension aggregated score / BPRS Guilt Feelings aggregated score / BPRS Anxiety aggregated score / MADRS Reduced Sleep % improvement / MADRS Reduced Sleep improvement / MADRS Reduced Sleep aggregated score: IDR n=8; for MADRS Suicidal Thoughts aggregated score: baseline 11; for MADRS Inner Tension aggregated score: baseline 26; for MADRS Lassitude aggregated score: baseline 27; for MADRS Pessimistic Thoughts aggregated score: baseline 28; for MADRS Concentration Difficulties aggregated score: baseline 30; for MADRS Inability to Feel aggregated score: baseline 36; for BPRS Emotional Withdrawal aggregated score: baseline 13; for BPRS Blunted Affect aggregated score: baseline 15; for BPRS Tension aggregated score: baseline 16; for BPRS Guilt Feelings aggregated score: baseline 34; for BPRS Anxiety aggregated score: baseline 37; for MADRS Reduced Sleep aggregated score: baseline 25
Description: Patients were assigned to different groups. In the context of the present invention, the group who received a single, 12 mg dose and the group who underwent an intra-day individualized dosing regimen (IDR) that allowed for multiple, escalating doses (6 mg, 12 mg and 18 mg) within a single day, driven by the intensity of the patient-reported psychedelic experience are of interest.
The data gathered include the assessment of the treated patients against several scales including the Montgomery Åsberg Depression Rating Scale (MADRS) and the Brief Psychiatric Rating Scale (BPRS).
This trial was designed in two parts. Part A was an open-label, single-arm, single-dose Phase 1 trial with two dose levels (12 mg (n=4) and 18 mg (n=4)). […] The primary endpoint of Part B was to assess the effects on the severity of depression, as assessed by the proportion of patients in remission on day seven after dosing, defined as a MADRS total score of less than or equal to 10.

COc1ccc2[nH]cc(CCN(C)C)c2c1 [5-MeO-DMT]
MADRS Concentration Difficulties % improvement (2 h): 63% and 63.33%
MADRS Concentration Difficulties improvement (2 h): 19 points
MADRS Inability to Feel % improvement (2 h): 67% and 66.67%
MADRS Inability to Feel improvement (2 h): 24 points
MADRS Inner Tension % improvement (2 h): 58% and 57.69%
MADRS Inner Tension improvement (2 h): 15 points
MADRS Lassitude % improvement (2 h): 63% and 62.96%
MADRS Lassitude improvement (2 h): 17 points
MADRS Pessimistic Thoughts % improvement (2 h): 75%
MADRS Pessimistic Thoughts improvement (2 h): 21 points
MADRS Suicidal Thoughts % improvement (2 h): 73% and 72.72%
MADRS Suicidal Thoughts improvement (2 h): 8 points
MADRS Suicidal Thoughts aggregated score (2 h): 3
MADRS Inner Tension aggregated score (2 h): 11
MADRS Lassitude aggregated score (2 h): 10
MADRS Pessimistic Thoughts aggregated score (2 h): 7
MADRS Concentration Difficulties aggregated score (2 h): 11
MADRS Inability to Feel aggregated score (2 h): 12
BPRS Anxiety % improvement (3 h): 49% and 48.65%
BPRS Anxiety improvement (3 h): 18 points
BPRS Blunted Affect % improvement (3 h): 27% and 26.67%
BPRS Blunted Affect improvement (3 h): 4 points
BPRS Emotional Withdrawal % improvement (3 h): 38% and 38.46%
BPRS Emotional Withdrawal improvement (3 h): 5 points
BPRS Guilt Feelings % improvement (3 h): 59% and 58.82%
BPRS Guilt Feelings improvement (3 h): 20 points
BPRS Tension % improvement (3 h): 31% and 31.25%
BPRS Tension improvement (3 h): 5 points
BPRS Emotional Withdrawal aggregated score (3 h): 8
BPRS Blunted Affect aggregated score (3 h): 11
BPRS Tension aggregated score (3 h): 11
BPRS Guilt Feelings aggregated score (3 h): 14
BPRS Anxiety aggregated score (3 h): 19
BPRS Anxiety % improvement (day 1): 57% and 56.76%
BPRS Anxiety improvement (day 1): 21 points
BPRS Blunted Affect % improvement (day 1): 47% and 46.67%
BPRS Blunted Affect improvement (day 1): 7 points
BPRS Emotional Withdrawal % improvement (day 1): 38% and 38.46%
BPRS Emotional Withdrawal improvement (day 1): 5 points
BPRS Guilt Feelings % improvement (day 1): 68% and 67.65%
BPRS Guilt Feelings improvement (day 1): 23 points
BPRS Tension % improvement (day 1): 31% and 31.25%
BPRS Tension improvement (day 1): 5 points
MADRS Concentration Difficulties % improvement (day 1): 97% and 96.67%
MADRS Concentration Difficulties improvement (day 1): 29 points
MADRS Inability to Feel % improvement (day 1): 94% and 94.44%
MADRS Inability to Feel improvement (day 1): 34 points
MADRS Inner Tension % improvement (day 1): 77% and 76.92%
MADRS Inner Tension improvement (day 1): 20 points
MADRS Lassitude % improvement (day 1): 81% and 81.48%
MADRS Lassitude improvement (day 1): 22 points
MADRS Pessimistic Thoughts % improvement (day 1): 86% and 85.71%
MADRS Pessimistic Thoughts improvement (day 1): 24 points
MADRS Reduced Sleep % improvement (day 1): 52%
MADRS Reduced Sleep improvement (day 1): 13 points
MADRS Suicidal Thoughts % improvement (day 1): 91% and 90.91%
MADRS Suicidal Thoughts improvement (day 1): 10 points
MADRS Suicidal Thoughts aggregated score (day 1): 1
BPRS Emotional Withdrawal aggregated score (day 1): 8
BPRS Blunted Affect aggregated score (day 1): 8
BPRS Tension aggregated score (day 1): 11
MADRS Reduced Sleep aggregated score (day 1): 12
MADRS Inner Tension aggregated score (day 1): 6
MADRS Lassitude aggregated score (day 1): 5
MADRS Pessimistic Thoughts aggregated score (day 1): 4
MADRS Concentration Difficulties aggregated score (day 1): 1
BPRS Guilt Feelings aggregated score (day 1): 11
MADRS Inability to Feel aggregated score (day 1): 2
BPRS Anxiety aggregated score (day 1): 16
BPRS Anxiety % improvement (day 7): 54% and 54.05%
BPRS Anxiety improvement (day 7): 20 points
BPRS Blunted Affect % improvement (day 7): 47% and 46.67%
BPRS Blunted Affect improvement (day 7): 7 points
BPRS Emotional Withdrawal % improvement (day 7): 38% and 38.46%
BPRS Emotional Withdrawal improvement (day 7): 5 points
BPRS Guilt Feelings % improvement (day 7): 71% and 70.59%
BPRS Guilt Feelings improvement (day 7): 24 points
BPRS Tension % improvement (day 7): 38% and 37.50%
BPRS Tension improvement (day 7): 6 points
MADRS Concentration Difficulties % improvement (day 7): 70%
MADRS Concentration Difficulties improvement (day 7): 21 points
MADRS Inability to Feel % improvement (day 7): 83% and 83.33%
MADRS Inability to Feel improvement (day 7): 30 points
MADRS Inner Tension % improvement (day 7): 54% and 53.85%
MADRS Inner Tension improvement (day 7): 14 points
MADRS Lassitude % improvement (day 7): 89% and 88.89%
MADRS Lassitude improvement (day 7): 24 points
MADRS Pessimistic Thoughts % improvement (day 7): 89% and 89.29%
MADRS Pessimistic Thoughts improvement (day 7): 25 points
MADRS Reduced Sleep % improvement (day 7): 64%
MADRS Reduced Sleep improvement (day 7): 16 points
MADRS Suicidal Thoughts % improvement (day 7): 73% and 72.73%
MADRS Suicidal Thoughts improvement (day 7): 8 points
MADRS Suicidal Thoughts aggregated score (day 7): 3
BPRS Emotional Withdrawal aggregated score (day 7): 8
BPRS Blunted Affect aggregated score (day 7): 8
BPRS Tension aggregated score (day 7): 10
MADRS Reduced Sleep aggregated score (day 7): 9
MADRS Inner Tension aggregated score (day 7): 12
MADRS Lassitude aggregated score (day 7): 3
MADRS Pessimistic Thoughts aggregated score (day 7): 3
MADRS Concentration Difficulties aggregated score (day 7): 9
BPRS Guilt Feelings aggregated score (day 7): 10
MADRS Inability to Feel aggregated score (day 7): 6
BPRS Anxiety aggregated score (day 7): 17
Patients maintaining remission (IDR, Day 7): 7/8
Patients achieving remission (IDR, day 1): 8/8
Patients achieving remission (IDR, within 2h after dosing): 5/8
SAEs (Part A): No SAEs were reported
Changes in safety laboratory analyses, vital signs, psychiatric safety assessments, cognitive function (Part A and Part B): No clinically significant changes
Patients with at least one ADR (Part A, both groups (12 mg and 18 mg), all mild, resolved spontaneously): 3 of 4
SAEs (Part B): No SAEs were reported
Patients with at least one ADR (Part B IDR n=8, all resolved spontaneously): 87.5%
Hypomania induction (TRD patients): no evidence of hypomania induction

— patent US20240108601A1, “TREATMENT OF MENTAL DISORDERS” (GH Research Ireland Limited, priority 2022, published 2024)
